From US5412125A, “Dipeptidic amides derived from glycyl-serine as surfactants or hydrating agents and cosmetic, pharmaceutical or alimentary compositions containing the same” (L'Oreal, priority 1991, dated 1995)
Where a SMILES comes first, the peptide text is derived from it. The star is where a group is joined. Lauroyl = CCCCCCCCCCCC(=O)*

Assay: Foaming power study (brush-developed foam in graduated cylinder)
Assay type: physicochemical
Settings: 5% aqueous solution (weight/volume), 5 ml with 6 mg natural feminine sebum; after 180 sec stirring
Protocol: The test consists in developing the foam using a brush made of natural hog bristles (length=[…]) displaced in a plexiglass graduated cylindrical container (inside diameter=35 mm). This container is driven in a uniform circular motion which is the reverse of that described by the brush. This permits a good distribution of the foam in the graduated container despite the small amounts developed. (brush speed=100 rpm, container speed=10 rpm). The procedure is carried out using 5 ml of each solution studied to which has been added 6 mg of natural feminine sebum. The foam heights are recorded after one, two and three minutes of stirring.

Foam Height (cm) at the end of a time of 180 sec: 20 cm
SMILES: CCCCCCCCCCCC(=O)NCC(=O)NCC(=O)[O-].[Na+] [compound A, sodium salt of N-dodecanoyl-glycyl-glycine] (Lauroyl-Gly-Gly-OH)
